Assay results: patent US20240410877A1, “SYSTEMS AND METHODS FOR MIXED MULTIPLE CELL LINE SCREENING USING ENDOGENOUS SINGLE NUCLEOTIDE POLYMORPHISM (SNP)-BASED CELL LINE IDENTIFICATION” (University of Kentucky Research Foundation, priority 2023, published 2024)

Experiments:
Format in all cases: cell-based, human
Huh7 = assay: Cell proliferation assay of single cell line; details: Huh7, 1 μM, 30 h
Procedure: (§1) The liver cancer cell lines, Huh7, C3A, PLC/PRF/5, SNU449, SNU475 and SK-Hep1, were purchased from the American Type Culture Collection (ATCC). The cells were cultured in DMEM (ATCC®30-2002) containing 10% (v/v) Fetal Bovine Serum (FBS) (Sigma F0926) and grown in an incubator at 37° C. with 5% CO2. The halogenated diarylacetylene, 4-((2,6-difluorophenyl) ethynyl)-N,N-dimethylaniline (DEDA), was synthesized and characterized as previously described.^18,19
(§2) For proliferation assays of single cell line, cells were seeded in 12-well plates (2×10^5 cells per well) and incubated overnight. The following day, DEDA (1 μM solution in DMSO) was added to each well with DMSO alone as a control. Each experiment was performed in quadruplicate. After 30 h, cells were analyzed under a reverse microscope. Cell viability and number were analyzed using the Vi-Cell XR Cell Viability Analyzer (Beckman Coulter).

PLC/PRF/5 = assay: Cell proliferation assay of single cell line; details: PLC/PRF/5, 1 μM, 30 h
Procedure: as §1, §2

C3A = assay: Cell proliferation assay of single cell line; details: 1 μM, 30 h
Procedure: as §1, §2

SNU449 = assay: Cell proliferation assay of single cell line; details: SNU449, 1 μM, 30 h
Procedure: as §1, §2

SNU475 = assay: Cell proliferation assay of single cell line; details: SNU475, 1 μM, 30 h
Procedure: as §1, §2

SK-Hep1 = assay: Cell proliferation assay of single cell line; details: SK-Hep1, 1 μM, 30 h
Procedure: as §1, §2

c-Myc = assay: Western blot of c-Myc expression in liver cancer cells; details: C3A cells, 1 μM DEDA vs DMSO
Procedure: Cells were grown in six-well plates and lysed in 0.5 mL/well lysis buffer (50 mM HEPES, 100 mM NaCl, 2 mM EDTA, 1% glycerol, 50 mM NaF, 1 mM Na3VO4, 1% Triton X-100, with protease inhibitors). Cell lysates were separated by a 10% SDS-PAGE gel and transferred to an Immobilon PVDF membrane. The protein levels of c-Myc and GAPDH (loading control) were analyzed using antibodies that recognize c-Myc (Epitomics, #1472-1) and GAPDH (GeneTex, #627408).

CN(C)c1ccc(C#Cc2c(F)cccc2F)cc1 [DEDA, 4-((2,6-difluorophenyl)ethynyl)-N,N-dimethylaniline]
sensitivity in cell proliferation assay (Huh7): DEDA-sensitive | sensitivity in cell proliferation assay (PLC/PRF/5): resistant | sensitivity in cell proliferation assay (C3A): DEDA-sensitive | sensitivity in cell proliferation assay (SNU449): resistant | sensitivity in cell proliferation assay (SNU475): resistant | sensitivity in cell proliferation assay (SK-Hep1): resistant | c-Myc expression (c-Myc): inhibited c-Myc expression
